Data as given in EP4725956A1, “MODIFIED POLYPEPTIDE AND USE THEREOF IN FIELD OF ANALGESIA” (Nanjing Anji Biotechnology Co., Ltd., priority 2023, dated 2024).
Positions of bridges follow the written chain, without caps; N, C: chain ends. Non-standard residues stand in square brackets, D forms with d. Residues, ends and D or L forms follow the SMILES beside them. Bip = N[C@@H](Cc1ccc(-c2ccccc2)cc1)C(=O)O; Hyp = O=C(O)[C@@H]1C[C@@H](O)CN1; Nle = CCCC[C@H](N)C(=O)O; Orn = NCCC[C@H](N)C(=O)O; Aib = CC(C)(N)C(=O)O

Columns and labels:
[1] = tested on: mouse diabetic neuropathic pain model; assay: Mouse diabetic neuropathic pain model (Example 10); assay type: in vivo
Procedure: Except for the control group, the remaining male C57 mice (Hangzhou Ziyuan Experimental Animal Technology Co., Ltd.) were continuously fed a high-sugar, high-fat diet for approximately ten weeks. For the model group, mice were fasted overnight, and streptozotocin (STZ) (Sann Chemical Technology (Shanghai) Co., Ltd.) was dissolved in sodium citrate-citric acid buffer solution and intraperitoneally injected at a dose of 70 mg/kg. About two weeks after STZ injection, the mechanical pain threshold of mice was measured. Mice were placed on a perforated wire mesh for adaptation, and the plantar surface of the right hind paw was vertically stimulated with a blunt needle. Pain threshold data were collected using a biosignal acquisition system. Each mouse was measured three times, and the average value was calculated. Mice were then randomly assigned to groups based on their pain thresholds for drug administration.
Day 1 of dosing: Drug administration was performed according to Table 9. Mechanical pain thresholds of the plantar surface were measured at 0 h, 2 h, 4 h, 6 h, and 8 h after administration.

[2] = In vitro plasma stability and predicted half-life (HPLC main peak area, Example 3); assay type: in vitro ADME; conditions: human plasma (EDTA anticoagulant), 37°C, sampled up to 24 h, predicted half-life calculated with Winolin
Outline: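 Peptides (10 mg in 5 mL human EDTA plasma) incubated at 37°C, sampled from 0 min up to 24 h. Samples quenched with acetonitrile, centrifuged and analysed by HPLC for main peak area; in vitro half-life predicted from peak-area decline by pharmacokinetic fitting.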

rat CCI model = assay: Rat CCI (chronic constriction injury) model (Example 9); assay type: in vivo; conditions: Day 1 of dosing
Source text: Neuropathic pain has many types, and animal models can simulate clinical neuropathic pain. Common SD rat sciatic nerve neuropathic pain models include CCI (Chronic Constriction Injury), SNI (Spared Nerve Injury), SNL (Spinal Nerve Ligation), and CCD (using stainless steel wire through the intervertebral foramen to fix and compress the dorsal root ganglion). Among them, the CCI model is widely used to study neuropathic pain, providing a basis for further research on mechanisms and strategies for nerve injury repair (Wen Xiaojun, Medical Information, Jan. 2018, Vol. 31, No.1). In this example, the CCI model was employed.
Except for the control group, the remaining SD rats were anesthetized via intraperitoneal injection of 10% chloral hydrate saline solution at a dose of 0.3 mL per 100 g body weight, and surgical modeling was performed. The right hind limb skin was carefully incised, muscles were separated, and the sciatic nerve was ligated three times using 4-0 surgical silk, spaced 1 mm apart. Muscles and skin were sutured, and antibiotics were applied to the wound to prevent infection. […] Approximately 10 days post-surgery, plantar pain thresholds were measured three times for each rat, and the average value was calculated. Rats were randomly assigned to groups based on pain thresholds. Drug administration was performed according to Table 8, and plantar pain thresholds were measured at 2 h, 4 h, 6 h, and 8 h after administration.

CCCC[C@H](NC(=O)[C@@H](NC(=O)[C@H]1CSSC[C@H](NC(=O)[C@H](CO)NC(=O)CN)C(=O)N[C@@H](CO)C(=O)N[C@H]([C@H](C)O)C(=O)N2C[C@H](O)C[C@H]2C(=O)N2C[C@H](O)C[C@H]2C(=O)NC(C)(C)C(=O)N1)C(C)C)C(=O)N[C@@H](Cc1ccc(-c2ccccc2)cc1)C(=O)N[C@@H](CCCN)C(N)=O [AJ003-36, GSCS-(D-Thr)-Hyp-Hyp-Aib-(D-Cys)-V-Nle-Bip-Orn-NH2 (3,9 disulfide bond)] (H-GSCS[dT][Hyp][Hyp][Aib][dC]V[Nle][Bip][Orn]-NH2; disulfide 3-9)
significant analgesic activity: analgesic activity compared with the model group (mechanical pain threshold) ([1]; Day 1 of dosing, 2 h and 4 h, 1 mg/kg s.c. (low dose)) | analgesic activity compared with the model group (mechanical pain threshold) ([1]; Day 1 of dosing, 2 h and 4 h, 2 mg/kg s.c. (AJ003; AJ003-36 medium dose)) | analgesic activity compared with the model group (mechanical pain threshold) ([1]; Day 1 of dosing, 2 h and 4 h, 3 mg/kg s.c. (high dose)) | analgesic activity compared with the model group (mechanical pain threshold) ([1]; Day 1 of dosing, 6 h and 8 h, 1 mg/kg s.c. (low dose)) | analgesic activity compared with the model group (mechanical pain threshold) ([1]; Day 1 of dosing, 6 h and 8 h, 2 mg/kg s.c. (AJ003; AJ003-36 medium dose)) | analgesic activity compared with the model group (mechanical pain threshold) ([1]; Day 1 of dosing, 6 h and 8 h, 3 mg/kg s.c. (high dose)) | analgesic activity compared with the model group (mechanical pain threshold) ([1]; Day 4 of dosing, 2 h and 4 h, 1 mg/kg s.c. (low dose)) | analgesic activity compared with the model group (mechanical pain threshold) ([1]; Day 4 of dosing, 2 h and 4 h, 2 mg/kg s.c. (AJ003; AJ003-36 medium dose)) | analgesic activity compared with the model group (mechanical pain threshold) ([1]; Day 4 of dosing, 2 h and 4 h, 3 mg/kg s.c. (high dose)) | analgesic activity compared with the model group (mechanical pain threshold) ([1]; Day 4 of dosing, 6 h and 8 h, 1 mg/kg s.c. (low dose)) | analgesic activity compared with the model group (mechanical pain threshold) ([1]; Day 4 of dosing, 6 h and 8 h, 2 mg/kg s.c. (AJ003; AJ003-36 medium dose)) | analgesic activity compared with the model group (mechanical pain threshold) ([1]; Day 4 of dosing, 6 h and 8 h, 3 mg/kg s.c. (high dose)) | analgesic activity compared with the model group (mechanical pain threshold) ([1]; Day 8 of dosing, 2 h and 4 h, 1 mg/kg s.c. (low dose)) | analgesic activity compared with the model group (mechanical pain threshold) ([1]; Day 8 of dosing, 2 h and 4 h, 2 mg/kg s.c. (AJ003; AJ003-36 medium dose)) | analgesic activity compared with the model group (mechanical pain threshold) ([1]; Day 8 of dosing, 2 h and 4 h, 3 mg/kg s.c. (high dose)) | analgesic activity compared with the model group (mechanical pain threshold) ([1]; Day 8 of dosing, 6 h and 8 h, 2 mg/kg s.c. (AJ003; AJ003-36 medium dose)) | analgesic activity compared with the model group (mechanical pain threshold) ([1]; Day 8 of dosing, 6 h and 8 h, 3 mg/kg s.c. (high dose)) | analgesic activity compared with the model group (mechanical pain threshold) ([1]; Day 14 of dosing, 2 h and 4 h, 1 mg/kg s.c. (low dose)) | analgesic activity compared with the model group (mechanical pain threshold) ([1]; Day 14 of dosing, 2 h and 4 h, 2 mg/kg s.c. (AJ003; AJ003-36 medium dose)) | analgesic activity compared with the model group (mechanical pain threshold) ([1]; Day 14 of dosing, 2 h and 4 h, 3 mg/kg s.c. (high dose)) | analgesic activity compared with the model group (mechanical pain threshold) ([1]; Day 14 of dosing, 6 h and 8 h, 1 mg/kg s.c. (low dose)) | analgesic activity compared with the model group (mechanical pain threshold) ([1]; Day 14 of dosing, 6 h and 8 h, 2 mg/kg s.c. (AJ003; AJ003-36 medium dose)) | analgesic activity compared with the model group (mechanical pain threshold) ([1]; Day 14 of dosing, 6 h and 8 h, 3 mg/kg s.c. (high dose)) | analgesic activity compared with the model group (mechanical pain threshold) (rat CCI model; 2 h and 4 h, 0.5 mg/kg s.c. (low dose)) | analgesic activity compared with the model group (mechanical pain threshold) (rat CCI model; 2 h and 4 h, 1 mg/kg s.c. (AJ003; AJ003-36 medium dose)) | analgesic activity compared with the model group (mechanical pain threshold) (rat CCI model; 2 h and 4 h, 2 mg/kg s.c. (high dose)) | analgesic activity compared with the model group (mechanical pain threshold) (rat CCI model; 6 h, 0.5 mg/kg s.c. (low dose)) | analgesic activity compared with the model group (mechanical pain threshold) (rat CCI model; 6 h, 1 mg/kg s.c. (AJ003; AJ003-36 medium dose)) | analgesic activity compared with the model group (mechanical pain threshold) (rat CCI model; 6 h, 2 mg/kg s.c. (high dose)) | analgesic activity compared with the model group (mechanical pain threshold) (rat CCI model; 8 h, 1 mg/kg s.c. (AJ003; AJ003-36 medium dose))
no significant difference: analgesic activity compared with the model group (mechanical pain threshold) ([1]; Day 8 of dosing, 6 h and 8 h, 1 mg/kg s.c. (low dose))
2.72 days: half-life at 2 mg/mL [2]
not significantly different: analgesic activity compared with the model group (mechanical pain threshold) (rat CCI model; 8 h, 0.5 mg/kg s.c. (low dose))
slightly superior analgesic activity: analgesic activity compared with pregabalin ([1]; high dose 3 mg/kg s.c. vs pregabalin 60 mg/kg oral, over four administrations)
